Measured values from patent US7078386B2, “Enhancing agent for nerve growth factor production comprising a compound having a coumarin backbone or a compound having a 2-dimethyl chroman backbone” (Takara Bio, Inc., priority 2001, dated 2006).

Assays:
[1] = test system: L-M cells (ATCC CCL-1.2) from murine fibroblasts; test: Enhancing activity for NGF production: NGF concentration in culture medium by enzyme immunoassay; type: cell-based; details: 20 hours culture
Protocol: (2) The enhancing activity for NGF production was determined for the fraction 10 derived from root portions of Angelica keiskei koidz., of which structure was identified in item (1) of Example 1. L-M cells (ATCC CCL-1.2) from murine fibroblasts were suspended in an M199 medium (manufactured by ICN) containing 0.5% bactopeptone (manufactured by Gibco) so as to have a concentration of 1.5×10^5 cells/ml. The suspension was put in a 96 well plate in an amount of 0.1 ml each well, and the cells were aseptically cultured. After culturing the cells for 3 days, the medium was removed therefrom, and exchanged with an M199 medium containing 0.5% bovine serum albumin (manufactured by Sigma). The fraction 10 derived from root portions of Angelica keiskei koidz. was added as the sample thereto, and the cells were cultured for 20 hours. After the termination of the culture, the concentration of the NGF in the culture medium was assayed by an enzyme immunoassay method (NGF Emax Immuno Assay System, manufactured by Promega). The NGF concentration when added was expressed, assuming that the NGF concentration in the cell culture medium with no addition of the sample is 100%, whereby the enhancing activity for NGF production of the sample was evaluated. The experiment was carried out twice, and an average value was taken. As a result, it was clarified that the fraction 10 derived from root portions of Angelica keiskei koidz., namely 3′-O-β-D-glucopyranoyl khellactone, has an enhancing activity for NGF production.

rat = test: Single-dose oral administration toxicity in rat; type: in vivo; details: orally administered, single dose at 1 g/kg of the body weight
Protocol: No toxicity is found when the above-mentioned effective ingredient usable in the present invention is administered in an amount effective for the exhibition of its action. […] Also, incidence of adverse actions is not found.

`C/C=C(/C)C(=O)OC1c2c(ccc3ccc(=O)oc23)OC(C)(C)C1O[C@@H]1O[C@H](CO[C@@H]2O[C@H](CO)[C@@H](O)[C@H](O)[C@H]2O)[C@@H](O)[C@H](O)[C@H]1O` (stereo partly drawn) [Fraction 19/20-6, 4′-O-angeloyl-3′-O-[6-O-(β-D-glucopyranosyl)-β-D-glucopyranosyl]-khellactone] was tested, and the “Amount of NGF Produced” value ([1]; Table 5, sample 1.00 mg/ml, no-sample control = 100% (0.063 ng/ml)) was 337.7% and the cases of death (rat) was “no cases of death”.

`CC(C)=CCc1cc2ccc(=O)oc2cc1O[C@@H]1O[C@H](CO)[C@@H](O)[C@H](O)[C@H]1O` [Fraction 19/20-5, 7-β-D-glucopyranosyloxy-6-prenyl coumarin] was tested, and the “Amount of NGF Produced” value ([1]; Table 4, sample 1.00 mg/ml, no-sample control = 100% (0.063 ng/ml)) was 487.9%.

In the case of `COc1ccc(C(=O)C=Cc2ccc(O)cc2)c2c1CC(O)C(C)(C)O2` (stereo not drawn) [3-hydroxy-8-[3-(4-hydroxyphenyl)-acryloyl]-5-methoxy-2-dimethyl chroman], the “Amount of NGF Produced” value ([1]; Table 6, sample 200 μM, no-sample control = 100% (0.668 ng/ml)) is reported as 457.7% and the cases of death (rat) is reported as “no cases of death”.

In the case of `CC1(C)Oc2ccc3ccc(=O)oc3c2C(O)C1OC1OC(CO)C(O)C(O)C1O` [Fraction 10, 3′-O-β-D-glucopyranoyl khellactone], the “Amount of NGF Produced” value ([1]; Table 1, sample 2.00 mg/ml, no-sample control = 100% (0.382 ng/ml)) is reported as 565.5%.

With `CC(C)=CCc1c(OC2OC(CO)C(O)C(O)C2O)ccc2ccc(=O)oc12` [Fraction 13-2, 7-O-β-D-glucopyranosyloxy-8-prenyl coumarin] the “Amount of NGF Produced” value ([1]; Table 2, sample 1.00 mg/ml, no-sample control = 100% (0.053 ng/ml)) was 792.1%.

For `COc1ccc(C(=O)O)c2c1CC(O)C(C)(C)O2` (stereo not drawn) [Fraction 18-4, 8-carboxyl-3-hydroxy-5-methoxy-2-dimethyl chroman], the “Amount of NGF Produced” value ([1]; Table 3, sample 0.0375 mg/ml, no-sample control = 100% (0.027 ng/ml)) was 2510.4% and the cases of death (rat) was “no cases of death”.
